From US20030134859A1 (SANKYO COMPANY, LIMITED, priority 2000, published 2003)

Test system: ABCA1 mRNA
Assay: Quantitative analysis of ABCA1 mRNA (TaqMan PCR) in RAW264.7 cells
Assay type: cell-based, mouse
Settings: 100 nM test compound, 24 hr, normalised to β-actin, DMSO = 100
Procedure: The mouse monocyte/macrophage cell line, RAW264.7 (ATCC TIB71) was purchased from Dainippon Pharmaceutical Co., Ltd. As the medium, the Dulbecco's modified Eagle's medium (DMEM medium; GIBCO, Cat. No. 11995-040) containing bovine fetal serum (the final concentration: 10% (v/v), MOREGATE, lot No. 474030), penicillin G (the final concentration: 50 units/mL, GIBCO) and streptomycin (the final concentration: 20 μg/mL, GIBCO) was used.
The culture of RAW264.7 cells was carried out in a CO2 incubator (37° C., 95% R.H., 5% of CO2).
A 2 ml volume of RAW264.7 cells suspension (1×10^6 cells/mL) was plated in each well of a 6-well plate (2×10^6 cells/well) and the cells were incubated for 2 hr in a CO2 incubator. The test compounds dissolved in DMSO were diluted with DMEM medium by 20 times, and were added to the wells at a volume of 4 μL/well (final concentration of the test compound: 100 nM). As the control, the DMSO solution was diluted with the DMEM medium by 20 times, and was added to the wells at the volume of 4 μL/well. After the cells were cultured in a CO2 incubator for 24 hr, the medium was removed and the total RNA was purified by using an RNeasy Mini Kit (Qiagen), according to the protocol attached. The concentration of the RNA in the samples obtained was calculated from absorbance at 260 nm (A260=1=40 μg/ml). Six (6) μg of total RNA were diluted with RNAase-free water so as to be 22.6 μL, which was heated at 65° C. for 10 min, and then was cooled on ice. The RNA in the solution was used as the template, and the cDNA was synthesized by using a First-strand cDNA Synthesis Kit (Amersham Pharmacia Biotech). In this reaction, a solution was prepared having the following composition and was reacted at 37° C. for 1 hr.
After the reaction, 3 μL of soution were collected from each of the reaction mixtures of the test compound-treated cell samples and that of the control cell samples. The mixed solution was used as the standard solution. The standard solution and each reaction solution were purified with a Chroma Spin-100+DEPC-H2O Column according to the protocol attached, and they were used as the template for TaqMan PCR (Template). In order to draw the calibration curve, the standard solution was diluted by every 5 times for 5 steps and each solution was used for TaqMan PCR. TaqMan PCR was carried out in ABCA1 and β-actin. As Primers for use in the TaqMan PCR, 4 oligonucleotides (abca1 forward (S3), abca1 reverse (AS3), β-actin forward (S4) and β-actin reverse (AS4)) were designed which are shown in sequences No. 5 to 8 in the sequence table described later. The synthesis and purification of these 4 oligomers was ordered from Amersham Pharmacia Biotech Co.
As FAM-TAMRA labelled TaqMan Probe, 2 kinds of oligonucleotides (abca1 (p1) and β-actin (p2)) were designed and were ordered from Applied Biosystems Co. to synthesize and purify.
The following reaction mixture of ABCA1 or β-actin was divided into 2 wells of a MicroAmp Optical 96-well Reaction Plate (Applied Biosystem Co.). TaqMan Universal PCR Master Mix was purchased from Applied Biosystem Co.
The plate was covered with a MicroAmp Optical Cap (Applied Biosystems Co.), and TaqMan PCR was carried out by using an ABI PRISM 7,700 Sequence Detection System (Applied Biosystem Co.) under the following conditions:
An analysis was made according to the procedures described in the manual of Sequence Detection Software (Applied Biosystem Co.) and the increased rate of ABCA1 mRNA due to the test compound was calculated based on the following equation.
A: Amount of the ABCA1 mRNA in the presence of the test compound
B: Amount of the β-actin mRNA in the presence of the test compound
C: Amount of the ABCA1 mRNA in the presence of DMSO
D: Amount of the β-actin mRNA in the presence of DMSO
Increase Rate (%) of ABCA1 mRNA=(A/B)/(C/D)×100

O=C(Nc1ccc(-c2ccc(O)cc2)cc1)c1cc([N+](=O)[O-])ccc1Cl [Example 135, N-[4-(4-Hydroxyphenyl)phenyl]-2-(chloro-5-nitrophenyl)carboxamide]
Rate of Increase (%) of ABCA1 mRNA: 163.0%
